Entries after “also recorded” stand apart in the source; their conditions may differ. Residues, ends and D or L forms follow the SMILES beside them. *: point of attachment. Palmitoyl = CCCCCCCCCCCCCCCC(=O)*
How the values were obtained:
wild type Drosophila = test: Egg-to-adult viability test of wild-type flies; format: in vivo; conditions: 10 or 50 μM in fly food, 21.5° C.
Description: Eggs laid within 5 hr were collected and cultured in fly food containing 10 or 50 μM of respective peptides at 21.5° C. Viability from egg to adult was calculated as the number of adult flies collected divided by the number of eggs examined. Data are expressed as mean±S.E.M. for 3 independent experiments. NS indicates no significance.
Flies were raised at 21.5° C. on cornmeal medium supplemented with dry yeast. Fly lines bearing UAS-DsRedCAG0 and UAS-DsRedCAG100 were kind gifts of Professor Nancy Bonini (University of Pennsylvania, USA). The gmr-GAL4 fly line was obtained from Bloomington Drosophila Stock Center. For pseudopupil assay, third instar larvae were fed with various amount of respective peptides dissolved in 2% sucrose solution for 2 hr and then continued to culture in standard fly food at 21.5° C.^38. Pseudopupil assay was performed on 12 day-old adult flies as mentioned previously^39. Images were captured by SPOT Insight CCD camera controlled by the SPOT Advanced software (Diagnostic instruments Inc.). Image processing was performed using the Adobe Photoshop CS software (Adobe). Each experiment was repeated at least 3 times (n=10 fly heads), and consistent results were obtained. […] Viability from egg-to-adult was calculated as the number of adult flies collected divided by the number of eggs examined. […]

MJDCAG27 RNA = test: Isothermal titration calorimetry binding assay, unexpanded MJDCAG27 RNA
Description: (§1) To test whether P3V8 specifically targets expanded CAG RNA, ITC experiments were performed using unexpanded CAG RNA (MJDCAG27 RNA), expanded CAG RNA (MJDCAG78 RNA), and expanded CAA/G RNA (MJDCAA/G78 RNA), respectively, to investigate whether the binding of P3V8 is RNA expansion-dependent and sequence-dependent (Table 6).
(§2) Experiments were carried out using a MicroCal iTC200 isothermal titration calorimeter (GE Healthcare) at 25° C. Data were analyzed using the Origin® scientific plotting software version 7 (Microcal Software Inc.). All RNAs and peptides were dissolved in binding buffer (20 mM MOPS, pH 7.0; 300 mM NaCl) and 0.7 mM of peptide was titrated into 0.5 μM of RNA for each experiment. The concentration of RNA was estimated with appropriate extinction coefficients at 260 nm on a Nanodrop 2000 (Thermo Scientific). A reference power of 8 μcal/s was used with an initial 0.5 μl of injection of peptide followed by 2 μl for all subsequent titrations points with a 60 sec initial equilibrium delay and 150 sec pause between injections. The samples were stirred at a speed of 1000 rpm throughout the experiment. The thermal titration data were fitted to the ‘one binding site model’ to determine the dissociation constant (KD). Each experiment was repeated at least 3 times with consistent results obtained.

pre-45s rRNA = test: Real-time PCR of pre-45s rRNA level in EGFPCAG78 RNA-expressing HEK293 cells; format: cell-based, human; conditions: with DeliverX
Description: It was next investigated whether P3V8 could also mitigate expanded CAG RNA-induced toxicity in mammalian cells. […] To compare the inhibitory activity of P3WT and P3V8, the peptide transfection reagent DeliverX (DX) was used to deliver P3WT and P3V8 to EGFPCAG78 RNA-expressing HEK293 cells. […] To confirm that P3V8 inhibited expanded CAG RNA-mediated nucleolar stress, the levels of pre-45s rRNA were measured in EGFPCAG78 RNA-expressing cells with or without treatment of P3V8 (FIG. 3C). Overexpression of the expanded CAG RNA reduced the level of pre-45s rRNA to approximately 40% of the untransfected control.
RNA was extracted from cells or ten 12 day-old adult fly heads by Trizol reagent (Life Technologies), and 1 μg of purified RNA was then used for reverse-transcription using the ImPromII™ Reverse Transcription System (Promega). Random hexamer (Roche) was used as primers in reverse transcription. Taqman gene expression assays were performed on an ABI 7500 Real-time PCR system and data were analyzed as previously described^13. The following probes were used: pre-45s rRNA (Assay ID: AILJIZM), pre-rRNA (Assay ID: AIMSG5U), Drosophila GAPDH (Assay ID: Dm01841186) and human actin (Assay ID: Hs99999903_m1). Each experiment was repeated at least 3 times.

MJDCAG78 RNA = test: Isothermal titration calorimetry binding assay, expanded MJDCAG78 RNA; conditions: ITC at 25° C.; 0.7 mM peptide titrated into 0.5 μM MJDCAG78 RNA; one binding site model; mean ± S.E.M.
Description: as §2

MJDCAA/G78 RNA = test: Isothermal titration calorimetry binding assay, expanded MJDCAA/G78 RNA
Description: as §1, §2

Compound | egg-to-adult viability (wild type Drosophila) | Kd (MJDCAG27 RNA; ITC, 0.7 mM peptide into 0.5 μM MJDCAG27 RNA, mean ± S.E.M.) [nM] | lower affinity than for expanded CAG RNA (MJDCAG27 RNA; unexpanded RNA vs expanded MJDCAG78 RNA) | pre-45s rRNA level (pre-45s rRNA) | Kd (MJDCAG78 RNA) [nM] | Kd (MJDCAA/G78 RNA; ITC, 0.7 mM peptide into 0.5 μM MJDCAA/G78 RNA, mean ± S.E.M.) [nM] | lower affinity than for expanded CAG RNA (MJDCAA/G78 RNA; expanded CAA/G RNA vs expanded MJDCAG78 RNA)
CCCCCCCCCCCCCCCC(=O)N[C@@H](CC(=O)O)C(=O)NCC(=O)N[C@@H](CCCCN)C(=O)N[C@@H](CO)C(=O)N[C@@H](CCCCN)C(=O)NCC(=O)N[C@H](C(=O)N[C@@H](C)C(=O)N[C@@H](Cc1ccc(O)cc1)C(=O)N[C@H](C(=O)N[C@@H](CCC(=O)O)C(=O)N[C@@H](Cc1ccccc1)C(=O)N[C@@H](CCCCN)C(N)=O)[C@@H](C)CC)[C@@H](C)CC [L1P3V8] (Palmitoyl-DGKSKGIAYIEFK-NH2) | no obvious alteration; also recorded: did not affect the viability | – | – | – | – | – | –
Ac-DGKSKGIAYIEFK-NH2 [P3V8] | – | 2190 ± 270 | 6-9 fold | dose-dependent restoration | 330 | 2940 ± 960 | 6-9 fold
